Experimental data taken from PubChem BioAssay (NCI).
Where “and” joins values, the source holds several entries; their conditions need not be identical. Equal entries are not always repeated.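 Each compound was tested at five concentrations against cells in 96-well plates for 48 hours. GI50 is the concentration that inhibits growth by half. At the TGI there is no net growth.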

Experiments:
Assay in all cases: growth of human tumour cells (NCI), 48 h
NCI-H23 lung = test system: NCI-H23 lung
HOP-62 NSCLC = test system: HOP-62 NSCLC
SK-MEL-5 melanoma = test system: SK-MEL-5 melanoma
HL-60(TB) leukemia = test system: HL-60(TB) leukemia
SF-295 CNS = test system: SF-295 CNS
HOP-92 NSCLC = test system: HOP-92 NSCLC
SR leukemia = test system: SR leukemia
SF-268 CNS = test system: SF-268 CNS
SNB-75 CNS = test system: SNB-75 CNS
RPMI-8226 leukemia = test system: RPMI-8226 leukemia

Structure (SMILES)	TGI (NCI-H23 lung)	TGI (HOP-62 NSCLC)	TGI (SK-MEL-5 melanoma)	TGI (HL-60(TB) leukemia)	TGI (SF-295 CNS)	TGI (HOP-92 NSCLC)	TGI (SR leukemia)	TGI (SF-268 CNS)	TGI (SNB-75 CNS)	TGI (RPMI-8226 leukemia)	GI50 (NCI-H23 lung)	GI50 (HOP-62 NSCLC)	GI50 (SK-MEL-5 melanoma)	GI50 (HL-60(TB) leukemia)	GI50 (SF-295 CNS)	GI50 (HOP-92 NSCLC)	GI50 (SR leukemia)	GI50 (SF-268 CNS)	GI50 (SNB-75 CNS)	GI50 (RPMI-8226 leukemia)
CC(=O)Oc1ccc2c(c1)C(=O)c1nc(C)c(C)nc1C2=O	> 100 µM	> 100 µM	30.1 µM	56.4 µM	> 100 µM	> 100 µM	> 89 µM	> 100 µM	> 100 µM	> 100 µM										
COc1cc2nccc(Oc3ccc(NC(=O)c4cn(C(C)C)c(=O)n(-c5ccc(F)cc5)c4=O)cc3F)c2cc1OC	> 100 µM	> 100 µM	> 100 µM	> 100 µM	> 100 µM	> 100 µM	> 100 µM	> 51.6 µM	> 21.9 µM	> 100 µM	> 100 µM	> 69.4 µM	> 100 µM	> 100 µM	0.435 µM	0.347 µM	> 100 µM	4.51 µM	1.03 µM	> 100 µM
CC(C)c1ccc(NC(=O)Cc2ccc(Nc3ncnc4cc(-c5cnn(CCN(C)C)c5)ccc34)cc2)cc1	> 10 µM	> 10 µM	> 10 µM	> 10 µM	> 10 µM	> 10 µM	2.42 µM	3.09 µM	2.03 µM	4.75 µM	4.14 µM	> 10 µM	> 10 µM	2.84 µM	2.47 µM	3.44 µM	0.107 µM	1.32 µM	0.162 µM	1.95 µM
O=C[C@@H](CO)O[C@H](C=O)n1cnc2c(=O)[nH]cnc21	1530 µM	630 µM	1150 µM	217 µM	2230 µM	865 µM	1210 µM	1840 µM	2270 µM	633 µM										
COc1cc(C(=O)c2cocc2C(=O)c2ccc3c(c2)OCO3)cc(OC)c1OC	26.2 µM	31.3 µM	25.5 µM	2.06 µM	2.48 µM	35.4 µM	> 56.2 µM	45 µM	10.4 µM	32.3 µM										
CNC(=O)c1ccccc1Nc1nc(Nc2ccc3c(c2OC)CCC[C@H](N2CCN(CCO)CC2)C3)ncc1Cl	15 µM and > 10 µM	16.8 µM and > 10 µM	4.87 µM and 5.19 µM	2.04 µM and 2.38 µM	3.79 µM and 3.42 µM	1.64 µM and 0.863 µM	1.96 µM and 2.32 µM	16.5 µM and > 10 µM	12.6 µM and > 10 µM	7.08 µM and > 10 µM	2.5 µM and 1.21 µM	2.84 µM and 2.77 µM	1.74 µM and 1.64 µM	0.403 µM and 0.305 µM	1.71 µM and 1.49 µM	0.154 µM and 0.148 µM	0.0449 µM and 0.128 µM	3.23 µM and 3.22 µM	1.88 µM and 2.49 µM	1.8 µM and 2.95 µM
Cc1cc(O)c(-c2ccc([C@@H](C)CN(C)C)cc2)c2c1[nH]c(=O)c1sccc12	6.41 µM	5.57 µM	3.98 µM	7.38 µM	6.07 µM	5.35 µM	26.6 µM	14.8 µM	3.02 µM	2.74 µM	1.06 µM	0.886 µM	0.805 µM	0.453 µM	0.73 µM	0.848 µM	0.363 µM	1.14 µM	0.206 µM	0.427 µM
N#Cc1cccc(C2C3=C(COC3=O)N(CCO)c3cc4c(cc32)OCO4)c1 (stereo not given)	> 50 µM	> 50 µM	> 50 µM	4.36 µM	> 50 µM	> 50 µM	> 50 µM	> 50 µM	2.76 µM	> 50 µM	3.58 µM	2.1 µM	1.07 µM	1.32 µM	1.17 µM	2.66 µM	0.313 µM	3.99 µM	0.745 µM	1.79 µM
C=C1CCC2C3(C)COC(c4ccccc4Cl)OC3CCC2(C)C1/C=C/C1=CCOC1=O (stereo not given)	> 100 µM	> 100 µM	21 µM	> 100 µM	> 100 µM	> 100 µM	> 100 µM	> 100 µM	> 100 µM	9.97 µM	6.18 µM	> 100 µM	3.78 µM	4.97 µM	3.48 µM	1.6 µM	3.97 µM	> 100 µM	> 100 µM	1.16 µM
CN(C)CCCNc1nc2ccccc2c2[nH]c3ccccc3c12	1.64 µM	3.77 µM	8.33 µM	2.49 µM	3.11 µM	3.83 µM	50 µM	4.1 µM	3.78 µM	1.95 µM	0.752 µM	0.497 µM	3.02 µM	1.05 µM	0.972 µM	1.26 µM	0.616 µM	1.39 µM	1.16 µM	0.811 µM
COc1ccc2c(c1)CN1CCc3c(cc(OC)c(OC)c3OC)C1C2 (stereo not given)	> 100 µM	> 100 µM	> 100 µM	> 100 µM	> 100 µM	> 100 µM	> 100 µM	> 100 µM	> 100 µM	> 100 µM										
CS(=O)(=O)N(c1cc(-c2ccc3ncnc(Nc4ccc(F)c(Cl)c4)c3c2)cnc1Cl)S(C)(=O)=O	5.15 µM	14.7 µM	2.42 µM	5.35 µM	4.92 µM	1.73 µM	> 100 µM	7.61 µM	0.698 µM	3.98 µM	0.861 µM	0.957 µM	0.978 µM	0.49 µM	1.25 µM	0.191 µM	4.35 µM	0.868 µM	0.0739 µM	0.826 µM
CN(N)c1nc(N)c(C#N)c(C#N)c1C#N	> 10 µM	> 10 µM	> 10 µM	> 10 µM	> 10 µM	> 10 µM	> 10 µM	> 10 µM	> 10 µM	> 10 µM										
C/C=C(\C)C(=O)OC1/C=C(\C)CC/C=C(\C)CC2OC(=O)C(C)(OC(C)=O)C12 (stereo not given)	> 100 µM	> 100 µM	> 100 µM	> 100 µM	> 100 µM	> 100 µM	> 100 µM	> 100 µM	> 100 µM	> 100 µM										
Nc1cccc2c1C(=O)c1cccc(NC(=O)c3ccccc3)c1C2=O	> 100 µM	21.5 µM	15 µM	> 100 µM	1.35 µM	6.72 µM	> 100 µM	> 100 µM	3.88 µM	> 100 µM	0.903 µM	0.535 µM	0.355 µM	0.292 µM	0.166 µM	0.34 µM	0.165 µM	0.576 µM	0.28 µM	0.462 µM
